# Legend:
# BV-2 cells = test: Aβ1-42 clearance Protonex assay; type: cell-based, mouse; conditions: 25 μM HCQ pretreatment, Protonex Green label
# Experimental: Aβ1-42 clearance-Protonex assay: For Abeta (Aβ1-42) clearance Protonex assay, 5000 BV-2 cells per well (uncoated 96 well plates) were plated out. After changing cells to treatment medium, HCQ (25 μM) was applied 1 hour before stimulation with Protonex™ Green 500, SE (21216, AAT Bioquest) labelled Aβ1-42 (Bachem 4061966; final concentration in well: 200 ng/ml (dilutions in medium)). Cells treated with vehicle and cells treated with Aβ1-42 alone served as controls. After 3 h of Aβ1-42 stimulation, cells were imaged on Cytation 5 multimode reader (Biotek) and green fluorescence was measured.
# STAT3 = target: T1, STAT3 (Homo sapiens, UniProt P40763); test: Western blot of total and phosphorylated STAT3 in human cell lines; type: cell-based; conditions: 50 μM; for p-STAT3 (Tyr705 and Ser727) / total STAT3: 48 hours
# T1 construct: endogenous in cells; host or cells: HMC3 (ATCC CRL-3304), 1321N1 (Sigma-Aldrich), SK-N-BE(2)-M17 (ATCC CRL-2267)
# T1 sequence (P40763 whole entry): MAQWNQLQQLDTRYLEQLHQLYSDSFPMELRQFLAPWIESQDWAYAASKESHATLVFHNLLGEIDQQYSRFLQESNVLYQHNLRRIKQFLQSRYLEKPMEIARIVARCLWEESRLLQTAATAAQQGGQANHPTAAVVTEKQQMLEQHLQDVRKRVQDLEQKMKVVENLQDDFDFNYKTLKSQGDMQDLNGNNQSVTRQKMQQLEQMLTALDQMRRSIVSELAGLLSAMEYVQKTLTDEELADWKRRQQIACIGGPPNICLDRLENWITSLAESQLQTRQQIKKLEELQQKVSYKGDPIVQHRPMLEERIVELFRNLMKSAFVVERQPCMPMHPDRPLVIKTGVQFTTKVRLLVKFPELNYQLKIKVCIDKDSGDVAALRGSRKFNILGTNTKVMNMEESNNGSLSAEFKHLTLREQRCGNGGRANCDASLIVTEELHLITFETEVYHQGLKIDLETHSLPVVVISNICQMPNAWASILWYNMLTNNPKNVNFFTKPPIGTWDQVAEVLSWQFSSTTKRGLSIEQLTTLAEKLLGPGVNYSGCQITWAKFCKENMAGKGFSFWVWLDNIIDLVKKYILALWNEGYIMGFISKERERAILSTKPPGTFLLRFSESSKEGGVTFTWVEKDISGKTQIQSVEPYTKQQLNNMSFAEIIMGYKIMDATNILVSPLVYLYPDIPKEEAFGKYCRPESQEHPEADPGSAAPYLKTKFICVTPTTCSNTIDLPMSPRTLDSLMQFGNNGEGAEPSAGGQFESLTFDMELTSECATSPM
# Experimental: Cell and neuron cultures: Immortalized human microglia HMC3 cells (ATCC CRL-3304) and astrocytoma 1321N1 cells (Sigma-Aldrich; derived from human brain astrocytoma; Macintyre et al., 1972) were cultured in Eagle's minimum essential medium (EMEM) supplemented with 10% fetal bovine serum (FBS, Gibco) and 1% antibiotics and antimycotics (Gibco). Neuroblastoma SK-N-BE(2)-M17 (M17) (ATCC CRL-2267) cells were cultured in a 1:1 mixture of EMEM and F12 media, supplemented with 10% FBS plus 1% antibiotics and antimycotics.
# HCQ treatment: Treatment with hydroxychloroquine Sulfate (Selleckchem, Catalog No.S4430) was performed at 50 μM concentration.
# Western blot analysis: Protein extracts were obtained by lysing cells with a denaturing buffer containing 2% sodium dodecyl sulfate (SDS) (Sigma-Aldrich) in 50 mM HEPES. After boiling and sonication, whole-cell protein extracts were size-fractionated through polyacrylamide gels and transferred to nitrocellulose membranes (Bio-Rad). Membranes were blocked with 5% non-fat dry milk and immunoblotted. Primary antibodies were employed that recognized total STAT3 (124H6) (Cell Signaling, 9139T), phosphorylated STAT3 (Tyr705) (D3A7) XP® (Cell Signaling, 9145S), and phosphorylated STAT3 (Ser727) (Cell Signaling, 94994S).
# Statistical analysis: Digitized images were obtained, processed, and quantified with ImageLab version 6.1 (BioRad Laboratories).
# Primary cortical neurons = test: Cell death due to trophic factor withdrawal; type: cell-based, mouse; conditions: HCQ 0.25, 2.5 and 25 μM
# Experimental: Cell death due to trophic factor withdrawal: Primary cortical neurons from E18 C57Bl/6 mice were prepared as previously described. On the day of preparation (DIV1), cortical neurons were seeded on poly-D-lysine pre-coated 96-well plates at a density of 3×10^4 cells per well. Every 4-6 days, a half medium exchange using full medium (Neurobasal, 2% B-27, 0.5 mM glutamine, 1% Penicillin-Streptomycin) was carried out. On DIV8, a full medium exchange to B-27 free medium (Neurobasal, 0.5 mM glutamine, 1% Penicillin-Streptomycin) was performed and HCQ (0.25 μM, 2.5 μM and 25 μM) was applied thereafter. […]
# YO-PRO™-1 (Invitrogen; Y3603) assay was carried out to detect apoptotic cells in combination with Propidium iodide (PI; P4864 Sigma Aldrich) staining for necrotic cells. […] Plate was measured at the multimode-reader (Cytation 5, BioTek).
# MTT solution was added to each well in a final concentration of 0.5 mg/mL. […] Optical density was measured with a Cytation 5 (Biotek) multimode reader at wavelength 570 nm. Values were calculated as percent of control values (vehicle control or lesion control).
# The Lactate dehydrogenase (LDH) toxicity assay was carried out on the supernatants collected after treatment using the Cytotoxicity Detection Kit (Roche Diagnostics, Cat. No: 11 644 793 001). […] Absorbance was measured at 492 nm and 620 nm as reference wavelength with a Cytation 5 (Biotek) multimode reader. […]
# [1] = tested on: microglia isolated from 5xFAD mice; test: LPS-induced neuroinflammation on MACS isolated 5xFAD microglia; type: cell-based, mouse
# Experimental: MACS microglia isolation and cultivation: Adult microglia were isolated from 9 months old 5xFAD mice via magnetic cell sorting (MACS). The mice were terminally anesthetized by i.p. injection of Pentobarbital (600 mg/kg, dosing 10 μL/g body weight) and brains were transcardially perfused with DPBS. Brains were removed, the brainstem discarded and the remaining brain minced for cell dissociation. Cell dissociation was performed using Miltenyi Adult Brain Dissociation Kit (Miltenyi, 130-107-677). MACS cell separation was performed using CD11b (Microglia) MicroBeads, mouse (Miltenyi, 130-093-634) and MS columns on OctoMACS™ cell separator (Miltenyi). Isolated microglia were seeded onto 0.01% PLL coated plates at a density of 10.000 cells per well in 384 well plate in DMEM containing 10% FBS,1% penicillin/streptomycin, and 2 mM L-glutamine.
# LPS-induced neuroinflammation on MACS isolated 5xFAD microglia: On DIV7 HCQ at 0.25 μM, 2.5 μM and 25 μM was applied 1 hour before LPS stimulation (Sigma-Aldrich; L6529; 1 mg/ml stock in ddH2O, final concentration in well: 50 ng/ml (dilutions in medium)). Cells treated with vehicle, cells treated with LPS alone, as well as cells treated with LPS plus reference item (dexamethasone 10 μM, Sigma D4902) served as controls. After 24 h of stimulation, cell supernatants were collected for the cytokine measurement (V-PLEX Proinflammatory Panel 1 Mouse Kit, K15048D, Mesoscale).
structure (smiles),measurement,setting,value
"CCN(CCO)CCCC(C)Nc1ccnc2cc(Cl)ccc12 (stereo not drawn) [HCQ, hydroxychloroquine]",microglial uptake of Aβ1-42 into acidic cellular compartments,BV-2 cells,enhances
same,cell viability,STAT3,did not have adverse effects on cell viability
same,p-STAT3 (Tyr705 and Ser727),STAT3; 1321N1 cells,reduced
same,total STAT3,STAT3; 1321N1 cells,without alteration
same,p-STAT3 (Tyr705 and Ser727),STAT3; HMC3 cells,reduced
same,total STAT3,STAT3; HMC3 cells,without alteration
same,phosphorylated STAT3 and total STAT3,STAT3; SK-N-BE(2)-M17 cells,non-significant
same,cell death in response to trophic factor withdrawal,Primary cortical neurons,No effects
same,release of IL1-b,[1],lowered
same,release of IL-10,[1],lowered
same,release of IL-12p70,[1],lowered
same,release of IL6,[1]; HCQ 0.25-25 μM,lowered
